In patent US4057530A, “2-Phenyl-indole derivatives and process for preparing the same” (priority 1974, dated 1977):
Where two headings read alike, the source gives them in different places.

Assays:
mice [1] = test: Acute toxicity by oral route in mice (LD50); type: in vivo; details: LD50 study
Experimental: (§1) The study of the acute toxicity of the stabilizers listed below was carried out by determining the dose of substance which provoked the death of 50% of the treated animals (LD50). A gummy suspension of the substance under study was administered by oral route to groups of at least ten mice and the following results were observed: […]

[2] = Acute toxicity by oral route in mice (LD50); type: in vivo; details: mouse, in vivo, gummy suspension
Experimental: as §1

[3] = Static thermostability of stabilized resin, simplified method (GARDNER sub-scale), Compound E; details: 185° C
Experimental: (§2) The stabilizing power of the substances of the invention was studied from two points of view:
(§3) These studies were performed with six different formulae of vinyl resins (hereinafter referred to as Compounds).
(§4) The different compounds were mixed and calendered in a mixer of which the cylinders were heated to 160° C. The rigid sheets so obtained were then heated in an oven to a temperature between 180° C and 215° C, until incipient carbonization.
(§5) A stove with rotating drums, ventilated and equipped with a thermostat was used for this operation. In the trials described hereunder, the behaviour of a sheet containing the stabilizer to be tested was compared to that of a sheet of the same formula but containing 2-phenyl-indole as stabilizer.
(§6) 2. It is also possible to use a simplified method which is more rapid and with which valid results are also obtained: a reference scale is drawn up with sheets of thermally treated polyvinyl chloride, of which the colourations have been definitely determined in GARDNER degrees as above. A GARDNER sub-scale is thus obtained in polyvinyl chloride sheets which can be directly compared to the sheets to be tested without using the comparator.

[4] = Static thermostability of stabilized resin, simplified method (GARDNER sub-scale), Compound D; details: 185° C
Experimental: as §2, §3, §4, §5, §6

mice [5] = type: in vivo
Experimental: as §1

[6] = Static thermostability of stabilized resin, simplified method (GARDNER sub-scale), Compound A; details: 210° C
Experimental: as §2, §3, §4, §5, §6
Finally, trials were carried out with Stabilizers 15, 16 and 17 and with 2-phenyl-indole. Compound A was used and the temperature was 210° C.

SMILES | Toxic symptoms (mice [1]) | LD50 [2] | Static thermostability compared with 2-phenyl-indole [6] | Colouration of sheet (GARDNER sub-scale) ([6]; 0 min) | Colouration of sheet (GARDNER sub-scale) ([6]; 3 min) | Colouration of sheet (GARDNER sub-scale) ([6]; 6 min) | Colouration of sheet (GARDNER sub-scale) ([6]; 9 min) | Colouration of sheet (GARDNER sub-scale) ([6]; 12 min) | Colouration of sheet (GARDNER sub-scale) ([6]; 15 min) | other results
CCCCC(CC)COc1ccc(-c2cc3ccccc3[nH]2)cc1 (stereo not shown) [Stabilizer 7, 2-(2"-ethyl-4'-hexyloxy-phenyl)-indole] | none | > 2000 mg/kg |  |  |  |  |  |  |  | Colouration of sheet (GARDNER sub-scale) ([3]; 0 min): < 1 GARDNER degrees; Colouration of sheet (GARDNER sub-scale) ([3]; 10 min): < 1 GARDNER degrees; Colouration of sheet (GARDNER sub-scale) ([3]; 20 min): < 2 GARDNER degrees; Colouration of sheet (GARDNER sub-scale) ([3]; 30 min): < 3 GARDNER degrees; Colouration given to the co-polymer [4]: less yellow with Stabilizer 7 than with 2-phenyl-indole; Static thermostability compared with 2-phenyl-indole [4]: markedly superior to 2-phenyl-indole; Colouration of sheet (GARDNER sub-scale) ([4]; 0 min): < 1 GARDNER degrees; Colouration of sheet (GARDNER sub-scale) ([4]; 10 min): < 2 GARDNER degrees; Colouration of sheet (GARDNER sub-scale) ([4]; 20 min): 2 GARDNER degrees; Colouration of sheet (GARDNER sub-scale) ([4]; 30 min): < 3 GARDNER degrees
CCCCSc1ccc(-c2cc3ccccc3[nH]2)cc1 [Stabilizer 15, 2-(4'-butylthio-phenyl)-indole] |  |  | very rapidly found to be superior to 2-phenyl-indole | 1 GARDNER degrees | 1 GARDNER degrees | 2 GARDNER degrees | 5 GARDNER degrees | 10 GARDNER degrees | 13 GARDNER degrees | LDO (maximal dose which does not provoke any death) (mice [5]; mouse, in vivo, po): > 3000 mg/kg; Toxic symptoms (mice [5]; oral, mice, LDO study): none; Colouration of sheet (GARDNER sub-scale) ([6]; 18 min): burnt
Oc1ccc(-c2cc3ccccc3[nH]2)cc1 [Stabilizer 20, 2-(4'-hydroxy-phenyl)-indole] | none | > 3000 mg/kg | markedly superior to 2-phenyl-indole | 1 GARDNER degrees | 1 GARDNER degrees | 2 GARDNER degrees | 4 GARDNER degrees | 9 GARDNER degrees | 11 GARDNER degrees | 
Nc1ccccc1-c1cc2ccccc2[nH]1 [Stabilizer 23, 2-(2'-amino-phenyl)-indole] | none | > 2000 mg/kg | superior to 2-phenyl-indole | pink | pink | pink | 4 GARDNER degrees | 6 GARDNER degrees | 12 GARDNER degrees | 
